Measured values as given in US7981924B2, “Thiophene derivatives” (Actelion Pharmaceuticals Ltd., priority 2005, dated 2011).

Key:
circulating lymphocytes = assay: Assessment of in vivo efficacy: circulating lymphocytes after oral administration; design: species or system normotensive male Wistar rats; conditions: 6 h after oral administration of 10 mg/kg, male Wistar rats, compared to vehicle group; mean ± SEM
Description: The efficacy of the compounds of Formula (I) is assessed by measuring the circulating lymphocytes after oral administration of 3 to 30 mg/kg of a compound of Formula (I) to normotensive male Wistar rats. The animals are housed in climate-controlled conditions with a 12 h-light/dark cycle, and have free access to normal rat chow and drinking water. Blood is collected before and 3, 6 and 24 h after drug administration. Full blood is subjected to hematology using Advia Hematology system (Bayer Diagnostics, Zurich, Switzerland).
All data are presented as mean ±SEM. Statistical analyses are performed by analysis of variance (ANOVA) using Statistica (StatSoft) and the Student-Newman-Keuls procedure for multiple comparisons. The null hypothesis is rejected when p<0.05.

[1] = biological target: recombinant human S1P1 receptor (Homo sapiens, UniProt P21453); assay: GTPγS assay to determine EC50 values; assay type: biochemical; conditions: 35S-GTPγS binding, membrane preparations of CHO cells expressing recombinant human S1P1 receptor
Description: GTPγS binding assays are performed in 96 well microtiter plates (Nunc, 442587) in a final volume of 200 μl, using membrane preparations of CHO cells expressing recombinant human S1P1 receptor. Assay conditions are 20 mM Hepes (Fluka, 54461), 100 mM NaCl (Fluka, 71378), 5 mM MgCl2 (Fluka, 63064), 0.1% BSA (Calbiochem, 126609), 1 μM GDP (Sigma, G-7127), 2.5% DMSO (Fluka, 41644), 50 pM ^35S-GTPγS (Amersham Biosciences, SJ1320). The pH is 7.4. Test compounds are dissolved and diluted in 100% DMSO and pre-incubated at room temperature for 30 min in 150 μl of the above assay buffer, in the absence of ^35S-GTPγS. After addition of 50 μl of ^35S-GTPγS, the assay is incubated for 1 h at rt. The assay is terminated by transfer of the reaction mixture to a Multiscreen plate (Millipore, MAHFC1H60) using a cell harvester from Packard Biosciences, and the plates are washed with ice-cold 10 mM Na2HPO4/NaH2PO4 (70%/30%), dried, sealed at the bottom and, after addition of 25 μl MicroScint20 (Packard Biosciences, order no. 6013621), sealed on the top. Membrane-bound ^35S-GTPγS is measured with a TopCount from Packard Biosciences.
EC50 is the concentration of agonist inducing 50% of the maximal specific ^35S-GTPγS binding. Specific binding is determined by subtracting non-specific binding from maximal binding. […]
The EC50 value was determined according to the method described above.

Sequence of recombinant human S1P1 receptor (P21453 whole entry): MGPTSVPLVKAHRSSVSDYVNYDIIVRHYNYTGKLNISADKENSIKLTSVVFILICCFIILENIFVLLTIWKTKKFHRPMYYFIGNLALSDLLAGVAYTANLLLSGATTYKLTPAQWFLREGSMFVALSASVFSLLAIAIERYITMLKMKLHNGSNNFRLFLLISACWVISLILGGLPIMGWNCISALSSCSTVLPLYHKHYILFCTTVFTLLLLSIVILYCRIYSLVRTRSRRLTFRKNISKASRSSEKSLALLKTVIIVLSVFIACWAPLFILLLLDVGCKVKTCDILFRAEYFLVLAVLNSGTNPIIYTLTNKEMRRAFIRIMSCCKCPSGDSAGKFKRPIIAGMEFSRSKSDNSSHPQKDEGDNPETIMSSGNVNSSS

EC50 [1] [nM]	SMILES	Lymphocyte counts (circulating lymphocytes) [%]
–	CCc1sc(C(=O)CCc2cc(C)c(CCC(=O)O)c(C)c2)c2c1CC(C)(C)CC2 [Example 1, 3-{4-[3-(3-ethyl-5,5-dimethyl-4,5,6,7-tetrahydro-benzo[c]thiophen-1-yl)-3-oxo-propyl]-2,6-dimethyl-phenyl}-propionic acid]	−61 ± 5
4	CCc1cc(CCC(=O)c2sc(C(F)(F)F)c3c2CCC(C)(C)C3)cc(C)c1CCC(=O)O [Example 4, 3-{4-[3-(5,5-Dimethyl-3-trifluoromethyl-4,5,6,7-tetrahydro-benzo[c]thiophen-1-yl)-3-oxo-propyl]-2-ethyl-6-methyl-phenyl}-propionic acid]	–
